Compound	melting point
CN1CCN(c2cccc3c2C[C@H](NC(=O)c2ccc(N4CCOCC4)cc2)CO3)CC1 [Example 14, (S)-N-[5-(4-Methylpiperazin-1-yl)-3,4-dihydro-2H-1-benzopyran-3-yl]-4-morpholinobenzamide]	210 to 212 °C
CN1CCN(c2cccc3c2C[C@H](NC(=O)c2ccc(C(F)(F)F)cc2)CO3)CC1 [Example 19, (S)-N-[5-(4-Methylpiperazin-1-yl)-3,4-dihydro-2H-1-benzopyran-3-yl]-4-trifluoromethylbenzamide]	212 to 214 °C
CN1CCN(c2cccc3c2C[C@H](NC(=O)c2ccc(C(F)(F)F)cc2C(F)(F)F)CO3)CC1 [Example 28, (S)-N-[5-(4-Methylpiperazin-1-yl)-3,4-dihydro-2H-1-benzopyran-3-yl]-2,4-bis(trifluoromethyl)benzamide]	202 to 203 °C
CN1CCN(c2cccc3c2C[C@H](NC(=O)c2ccc(N4CCNC(=O)CC4)cc2)CO3)CC1 [Example 35, (S)-N-[5-(4-Methylpiperazin-1-yl)-3,4-dihydro-2H-1-benzopyran-3-yl]-4-(hexa hydro-1,4-diazepin-5-on-1-yl)benzamide]	244 to 247 °C (dec.)
CN1CCN(c2cccc3c2C[C@H](NC(=O)c2ccc(N4CCNCC4)cc2)CO3)CC1 [Example 43, (S)-N-[5-(4-Methylpiperazin-1-yl)-3,4 dihydro-2H-1-benzopyran-3-yl]-4-(piperazin-1-yl)benzamide]	> 102 °C

Second part, the compound after the results:

melting point	Compound
88 °C (dec.)	CC(=O)N1CCN(c2ccc(C(=O)N[C@@H]3COc4cccc(N5CCN(C)CC5)c4C3)cc2)CC1 [Example 44, (S)-N-[5-(4-Methylpiperazin-1-yl)-3,4 dihydro-2H-1-benzopyran-3-yl]-4-(4-acetylpiperazin-1-yl)benzamide]
222 °C (dec.)	CN1CCN(c2cccc3c2C[C@H](NC(=O)c2ccc(C(=O)N4CCOCC4)cc2)CO3)CC1 [Example 45, (S)-N-[5-(4-Methylpiperazin-1-yl)-3,4 dihydro-2H-1-benzopyran-3-yl)-4-(morpholinocarbonyl)benzamide]
219 °C (dec.)	CN1CCN(c2cccc3c2C[C@H](NC(=O)c2ccc(C(=O)N(C)C)cc2)CO3)CC1 [Example 46, (S)-N-[5-(4-Methylpiperazin-1-yl)-3,4-dihydro-2H-benzopyran-3-yl)-4-(N,N-dimethylaminocarbonyl)benzamide]
211 to 212 °C	CN1CCN(c2cccc3c2C[C@H](NC(=O)c2ccc(N4CCN(CCO)CC4)cc2)CO3)CC1 [Example 48, (S)-N-[5-(4-Methylpiperazin-1-yl)-3,4 dihydro-2H-1-benzopyran-3-yl]-4-[4-(2-hydroxyethyl)-piperazin-1-yl]benzamide]

Reference: patent US7384943B2, “Substituted chroman derivatives” (AstraZeneca AB, priority 1997, dated 2008)
